Results: patent US20210403485A1, “PYRAZOLOPYRIMIDINE DERIVATIVE AS SELECTIVE TRK INHIBITOR” (SHANDONG LUYE PHARMACEUTICAL CO., LTD., priority 2018, published 2021)
Where two headings read alike, the source gives them in different places.

Legend:
[1] = Animal body weight and general observations, Ba/F3 ETV6-NTRK3 tumor-bearing nude mice
Procedure: The mice in groups were intragastrically administrated on the next day, and the animal body weight and the long and short diameters of the tumor were measured once every other day.

[2] = Pharmacokinetic test of compounds in rats (plasma, LC/MS/MS); format: in vivo, male SD rats; conditions: for AUC(0-t): read-out: Area under the curve AUC0-last
In short: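 Male SD rats, 7-9 weeks old, given single IV (3 mg/kg) or intragastric PO (10 mg/kg) doses in 5% DMSO/10% solutol/85% water. Plasma drug levels measured by LC/MS/MS at several time points to derive PK parameters.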

[3] = test system: Ba/F3 ETV6-NTRK3 cells; experiment: Efficacy test in animals: subcutaneous xenograft, intragastric administration; format: in vivo, nude mice
Procedure: Cells in the logarithmic growth phase were collected and resuspended in serum-free medium to a cell concentration of 2-4×10^7 cells/mL. An equal volume of matrigel was added to the cell suspension to achieve a final cell concentration of 1-2×10^7 cells/mL. 0.2 mL of tumor cell suspension was subcutaneously inoculated at the scapula of each nude mouse with the inoculation amount of 2-4×10^6 cells/mouse to prepare the animal models.

SMILES: O=C1NC2(CC2)COc2ncc(F)cc2C2COCCN2c2ccn3ncc1c3n2 (single isomer, unassigned) [WX001B]
- Rate of change in body weight (%) of day 11 to day 0 ([1]; 2.5 mg/kg bid): 4.9%
- Rate of change in body weight (%) of day 11 to day 0 ([1]; 5 mg/kg bid): 5.0%
- Rate of change in body weight (%) of day 11 to day 0 ([1]; 10 mg/kg bid): 4.8%
- Rate of change in body weight (%) of day 11 to day 0 ([1]; 20 mg/kg bid): 5.1%
- Body weight ([1]; Day 0, 2.5 mg/kg bid): 22.9 ± 1.6 g
- Body weight ([1]; Day 0, 5 mg/kg bid): 23.5 ± 1.6 g
- Body weight ([1]; Day 0, 10 mg/kg bid): 23.3 ± 0.9 g
- Body weight ([1]; Day 0, 20 mg/kg bid): 23.2 ± 1.9 g
- Body weight ([1]; Day 3, 2.5 mg/kg bid): 24.2 ± 2.0 g
- Body weight ([1]; Day 3, 5 mg/kg bid): 25.5 ± 1.8 g
- Body weight ([1]; Day 3, 10 mg/kg bid): 24.9 ± 0.7 g
- Body weight ([1]; Day 3, 20 mg/kg bid): 25.1 ± 2.5 g
- Body weight ([1]; Day 5, 2.5 mg/kg bid): 24.8 ± 1.8 g
- Body weight ([1]; Day 5, 5 mg/kg bid): 26.4 ± 1.6 g
- Body weight ([1]; Day 5, 10 mg/kg bid): 25.8 ± 0.7 g
- Body weight ([1]; Day 5, 20 mg/kg bid): 26.2 ± 2.8 g
- Body weight ([1]; Day 7, 2.5 mg/kg bid): 25.4 ± 2.0 g
- Body weight ([1]; Day 7, 5 mg/kg bid): 27.5 ± 1.7 g
- Body weight ([1]; Day 7, 10 mg/kg bid): 26.3 ± 1.1 g
- Body weight ([1]; Day 7, 20 mg/kg bid): 27.2 ± 2.7 g
- Body weight ([1]; Day 9, 2.5 mg/kg bid): 25.5 ± 1.8 g
- Body weight ([1]; Day 9, 5 mg/kg bid): 27.5 ± 2.3 g
- Body weight ([1]; Day 9, 10 mg/kg bid): 26.4 ± 1.1 g
- Body weight ([1]; Day 9, 20 mg/kg bid): 27.7 ± 2.9 g
- Body weight ([1]; Day 11, 2.5 mg/kg bid): 25.7 ± 1.9 g
- Body weight ([1]; Day 11, 5 mg/kg bid): 27.8 ± 2.2 g
- Body weight ([1]; Day 11, 10 mg/kg bid): 26.4 ± 1.4 g
- Body weight ([1]; Day 11, 20 mg/kg bid): 27.6 ± 3.5 g
- General observations: survival ([1]; all animals in all dose groups): survived until the end of administration
- Tolerance (body weight course) ([1]; all dose groups, 2.5-20 mg/kg bid): good tolerance
- Apparent clearance Cl ([2]; IV, 3 mg/kg): 19.7 mL/min/kg
- Vd ([2]; male, SD, rat, plasma, IV, 3 mg/kg, read-out: Apparent volume of distribution Vd): 1.9 L/kg
- AUC(0-t) ([2]; male, SD, rat, plasma, IV, 3 mg/kg): 6.24 µM·h
- half-life ([2]; male, SD, rat, plasma, IV, 3 mg/kg, read-out: Half-life T1/2 (converted)): 1.2 h
- AUC(0-t) ([2]; male, SD, rat, plasma, PO, 10 mg/kg): 8.07 µM·h
- bioavailability ([2]; male, SD, rat, plasma, PO, 10 mg/kg, read-out: Bioavailability F %): 39%
- Cmax ([2]; male, SD, rat, plasma, PO, 10 mg/kg, read-out: Peak concentration Cmax): 1800 nM
- Inhibition of growth of subcutaneous xenografts ([3]; 2.5-20 mg/kg): in a dose-dependent manner
- Relative tumor proliferation rate T/C ([3]; Day 0, 2.5 mg/kg bid): 100.00%
- Tumor volume ([3]; Day 0, 2.5 mg/kg bid): 303.54 ± 48.83 mm^3
- Relative tumor proliferation rate T/C ([3]; Day 0, 5 mg/kg bid): 100.00%
- Tumor volume ([3]; Day 0, 5 mg/kg bid): 303.26 ± 50.47 mm^3
- Relative tumor proliferation rate T/C ([3]; Day 0, 10 mg/kg bid): 100.00%
- Tumor volume ([3]; Day 0, 10 mg/kg bid): 303.14 ± 45.09 mm^3
- Relative tumor proliferation rate T/C ([3]; Day 0, 20 mg/kg bid): 100.00%
- Tumor volume ([3]; Day 0, 20 mg/kg bid): 303.47 ± 45.79 mm^3
- Relative tumor proliferation rate T/C ([3]; Day 3, 2.5 mg/kg bid): 42.59%
- Tumor volume ([3]; Day 3, 2.5 mg/kg bid): 360.24 ± 88.80 mm^3
- Relative tumor proliferation rate T/C ([3]; Day 3, 5 mg/kg bid): 43.90%
- Tumor volume ([3]; Day 3, 5 mg/kg bid): 371.36 ± 111.74 mm^3
- Relative tumor proliferation rate T/C ([3]; Day 3, 10 mg/kg bid): 30.18%
- Tumor volume ([3]; Day 3, 10 mg/kg bid): 255.24 ± 87.04 mm^3
- Relative tumor proliferation rate T/C ([3]; Day 3, 20 mg/kg bid): 31.16%
- Tumor volume ([3]; Day 3, 20 mg/kg bid): 263.60 ± 85.49 mm^3
